Assay results published in patent US8420830B2, “Macrocyclic factor VIIa inhibitors useful as anticoagulants” (Bristol-Myers Squibb Company, priority 2006, dated 2013).
“And” between values parts separate entries of the source, which are not always exact repeats. Identical values can stand only once. Counter-ions that a name gives are not always drawn.

These molecules were tested against T1, Factor VIIa (Homo sapiens, UniProt P08709) (assay: Factor VIIa assay). Details: measured in the Factor VIIa assay described above; several values in a cell are repeat determinations.
T1 construct: purchased Haematologic Technologies (purified) or Novo Nordisk (recombinant)
T1 sequence (P08709 213-466 limits assumed): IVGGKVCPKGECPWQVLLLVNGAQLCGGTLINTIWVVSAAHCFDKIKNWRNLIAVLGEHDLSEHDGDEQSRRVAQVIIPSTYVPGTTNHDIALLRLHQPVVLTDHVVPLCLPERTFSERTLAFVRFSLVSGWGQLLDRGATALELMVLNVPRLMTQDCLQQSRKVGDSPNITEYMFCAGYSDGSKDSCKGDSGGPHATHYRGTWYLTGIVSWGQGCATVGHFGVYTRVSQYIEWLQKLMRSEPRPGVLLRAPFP
T1 sequence (P08709 61-212 limits assumed): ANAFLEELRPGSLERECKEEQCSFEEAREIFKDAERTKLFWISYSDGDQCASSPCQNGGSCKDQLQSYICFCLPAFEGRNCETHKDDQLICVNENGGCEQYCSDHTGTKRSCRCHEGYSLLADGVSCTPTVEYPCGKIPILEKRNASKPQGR
T1 sequence (P13726 33-251 partner limits assumed): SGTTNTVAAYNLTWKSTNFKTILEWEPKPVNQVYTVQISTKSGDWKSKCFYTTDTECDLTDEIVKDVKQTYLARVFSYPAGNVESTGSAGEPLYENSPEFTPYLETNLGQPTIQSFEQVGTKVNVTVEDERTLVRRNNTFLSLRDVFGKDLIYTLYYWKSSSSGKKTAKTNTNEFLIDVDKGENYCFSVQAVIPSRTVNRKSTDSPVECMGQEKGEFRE
Type: biochemical

| Ki | SMILES |
| --- | --- |
| 23.6 nM | CCN1CC(=O)Nc2ccc(S(=O)(=O)C(C)C)c(c2)CNC(=O)C(Nc2ccc3nc[nH]c(=O)c3c2)c2cc(C)c(c(C)c2)C1 (stereo not shown) [Example 121, 14-Ethyl-17,20-dimethyl-2-(4-oxo-3,4-dihydro-quinazolin-6-ylamino)-7-(propane-2-sulfonyl)-4,11,14-triaza-tricyclo[14.2.2.1^6,10]henicosa-1(19),6,8,10(21),16(20),17-hexaene-3,12-dione bistrifluoroacetate] |
| 28.1 nM | CCC(=O)N1CC(=O)Nc2ccc(S(=O)(=O)C(C)C)c(c2)CNC(=O)C(Nc2ccc3nc[nH]c(=O)c3c2)c2cc(C)c(c(C)c2)C1 (stereo not shown) [Example 118, 17,20-Dimethyl-2-(4-oxo-3,4-dihydro-quinazolin-6-ylamino)-7-(propane-2-sulfonyl)-14-propionyl-4,11,14-triaza-tricyclo[14.2.2.1^6,10]henicosa-1(19),6,8,10(21),16(20),17-hexaene-3,12-dione trifluoroacetate] |
| 2530 nM | Cc1cc2ccc1[C@@H](C)COC(=O)Nc1cccc(c1)CN(CCNC(=O)OC(C)(C)C)C(=O)[C@@H]2Nc1ccc2cc[nH]c(=O)c2c1 [Example 148, {2-[(2R,15R)-15,17-Dimethyl-3,12-dioxo-2-(1-oxo-1,2-dihydro-isoquinolin-7-ylamino)-13-oxa-4,11-diaza-tricyclo[14.2.2.1^6,10]henicosa-1(19),6,8,10(21),16(20),17-hexaen-4-yl]-ethyl}-carbamic acid tert-butyl ester] |
| 1000 nM | CCOC(=O)CCN1Cc2cccc(c2)NC(=O)OC[C@H](C)c2ccc(cc2C)[C@@H](Nc2ccc3cc[nH]c(=O)c3c2)C1=O [Example 154, 3-[(2R,15R)-15,17-Dimethyl-3,12-dioxo-2-(1-oxo-1,2-dihydro-isoquinolin-7-ylamino)-13-oxa-4,11-diaza-tricyclo[14.2.2.1^6,10]henicosa-1(19),6,8,10(21),16(20),17-hexaen-4-yl]-propionic acid ethyl ester] |
| 1460 nM | COC(=O)NCCN1Cc2cccc(c2)NC(=O)OC[C@H](C)c2ccc(cc2C)[C@@H](Nc2ccc3cc[nH]c(=O)c3c2)C1=O [Example 153, {2-[(2R,15R)-15,17-Dimethyl-3,12-dioxo-2-(1-oxo-1,2-dihydro-isoquinolin-7-ylamino)-13-oxa-4,11-diaza-tricyclo[14.2.2.1^6,10]henicosa-1(19),6,8,10(21),16(20),17-hexaen-4-yl]-ethyl}-carbamic acid methyl ester] |
| 0.88 nM | Cc1cc2ccc1[C@@H](C)COC(=O)Nc1ccc(N3C(=O)C4CCC3CC4)c(c1)CN(C)C(=O)[C@@H]2Nc1ccc2cc[nH]c(=O)c2c1 [Example 168, (2R,15R)-4,15,17-Trimethyl-7-(3-oxo-2-aza-bicyclo[2.2.2]oct-2-yl)-2-(1-oxo-1,2-dihydro-isoquinolin-7-ylamino)-13-oxa-4,11-diaza-tricyclo[14.2.2.1^6,10]henicosa-1(19),6,8,10(21),16(20),17-hexaene-3,12-dione] |
| 1120 nM | Cc1cc2ccc1[C@@H](C)COC(=O)Nc1cccc(c1)CN(CCO)C(=O)[C@@H]2Nc1ccc2cc[nH]c(=O)c2c1 [Example 151, (2R,15R)-4-(2-Hydroxy-ethyl)-15,17-dimethyl-2-(1-oxo-1,2-dihydro-isoquinolin-7-ylamino)-13-oxa-4,11-diaza-tricyclo[14.2.2.1^6,10]henicosa-1(19),6,8,10(21),16(20),17-hexaene-3,12-dione] |
| 1300 nM | Cc1cc2cc(C)c1CCOC(=O)Nc1cccc(c1)CN(CCC(=O)O)C(=O)C2Nc1ccc2cc[nH]c(=O)c2c1 (stereo not shown) [Example 145, 3-[17,20-Dimethyl-3,12-dioxo-2-(1-oxo-1,2-dihydro-isoquinolin-7-ylamino)-13-oxa-4,11-diaza-tricyclo[14.2.2.1^6,10]henicosa-1(19),6,8,10(21),16(20),17-hexaen-4-yl]-propionic acid] |
| 26.6 nM | CC(=O)N1CC(=O)Nc2ccc(S(=O)(=O)C(C)C)c(c2)CNC(=O)C(Nc2ccc3cc[nH]c(=O)c3c2)c2cc(C)c(c(C)c2)C1 (stereo not shown) [Example 128, 14-Acetyl-17,20-dimethyl-2-(1-oxo-1,2-dihydro-isoquinolin-7-ylamino)-7-(propane-2-sulfonyl)-4,11,14-triaza-tricyclo[14.2.2.1^6,10]henicosa-1(19),6,8,10(21),16(20),17-hexaene-3,12-dione trifluoroacetate] |
| 33.2 nM | Cc1cc2cc(C)c1CN(C(C)C)CC(=O)Nc1ccc(S(=O)(=O)C(C)C)c(c1)CNC(=O)C2Nc1ccc2nc[nH]c(=O)c2c1 (stereo not shown) [Example 124, 14-Isopropyl-17,20-dimethyl-2-(4-oxo-3,4-dihydro-quinazolin-6-ylamino)-7-(propane-2-sulfonyl)-4,11,114-triaza-tricyclo[14.2.2.1^6,10]henicosa-1(19),6,8,10(21),06(20),17-hexaene-3,12-dione bistrifluoroacetate] |
| 1.95 nM | Cc1cc2ccc1[C@@H](C)COC(=O)Nc1ccc(N3CCCCS3(=O)=O)c(c1)CN(C)C(=O)[C@@H]2Nc1ccc2cc[nH]c(=O)c2c1 [Example 86, (2R,15R)-7-(1,1-Dioxo-1λ^6-perhydro-1,2-thiazin-2-yl)-4,15,17-trimethyl-2-(1-oxo-1,2-dihydro-isoquinolin-7-ylamino)-13-oxa-4,11-diaza-tricyclo[14.2.2.1^6,10]henicosa-1(19),6,8,10(21),16(20),17-hexaene-3,12-dione] |

Second part, the molecule before the results:

| SMILES | Ki |
| --- | --- |
| CC[C@H]1COC(=O)Nc2ccc(S(=O)(=O)C3CC3)c(c2)CN(C)C(=O)[C@H](Nc2ccc3nc[nH]c(=O)c3c2)c2ccc1cc2 [Example 65, (2R,15R)-7-Cyclopropanesulfonyl-15-ethyl-4-methyl-2-(4-oxo-3,4-dihydro-quinazolin-6-ylamino)-13-oxa-4,11-diaza-tricyclo[14.2.2.1^6,10]henicosa-1(19),6,8,10(21),16(20),17-hexaene-3,12-dione] | 29.4 nM and 34 nM |
| C[C@H]1COC(=O)Nc2ccc(S(=O)(=O)C3CC3)c(c2)CN(C)C(=O)[C@H](Nc2ccc3cc[nH]c(=O)c3c2)c2ccc1c(Cl)c2 [Example 84, (2R,15R)-17-Chloro-7-cyclopropanesulfonyl-4,15-dimethyl-2-(1-oxo-1,2-dihydro-isoquinolin-7-ylamino)-13-oxa-4,11-diaza-tricycle [14.2.2.1^6,10]henicosa-1(19),6,8,10(21),16(20),17-hexaene-3,12-dione] | 1.44 nM |
| Cc1cc2ccc1[C@@H](C)CCC(=O)Nc1ccc(OC(F)(F)F)c(c1)CN(C)C(=O)[C@@H]2Nc1ccc2c(F)c[nH]c(=O)c2c1 (single isomer, unassigned) [Example 42] | 27.6 nM |
| Cc1cc2cc(C)c1CCOC(=O)Nc1cccc(c1)CN(C)C(=O)C2Nc1ccc2cc[nH]c(=O)c2c1 (stereo not shown) [Example 14, 4,17,20-Trimethyl-2-(1-oxo-1,2-dihydro-isoquinolin-7-ylamino)-13-oxa-4,11-diaza-tricyclo[14.2.2.1^6,10]henicosa-1(19),6,8,10(21),16(20),17-hexaene-3,12-dione] | 1520 nM |
| CCc1cc2ccc1[C@@H](C)COC(=O)Nc1ccc(S(=O)(=O)C3CC3)c(c1)CN(C)C(=O)[C@@H]2Nc1ccc2cc[nH]c(=O)c2c1 [Example 18, (2R,15R)-7-Cyclopropanesulfonyl-17-ethyl-4,15-dimethyl-2-(1-oxo-1,2-dihydro-isoquinolin-7-ylamino)-13-oxa-4,11-diaza-tricyclo[14.2.2.1^6,10]henicosa-1(19),6,8,10(21),16(20),17-hexaene-3,12-dione] | 0.96 nM |
| CCO[C@H]1COC(=O)Nc2ccc(S(=O)(=O)C3CC3)c(c2)CN(C)C(=O)[C@H](Nc2ccc3cc[nH]c(=O)c3c2)c2ccc1c(C)c2 (single isomer, unassigned) [Example 40] | 1.57 nM |
| Cc1cc2ccc1[C@@H](C)COC(=O)Nc1ccc(S(=O)(=O)C3CC3)c(c1)CN(C)C(=O)[C@@H]2Nc1ccc2nc[nH]c(=O)c2c1 [Example 76, (2R,15R)-7-Cyclopropanesulfonyl-4,15,17-trimethyl-2-(4-oxo-3,4-dihydro-quinazolin-6-ylamino)-13-oxa-4,11-diaza-tricyclo[14.2.2.1^6,10]henicosa-1(19),6,8,10(21),16(20),17-hexaene-3,12-dione trifluoroacetate] | 0.69 nM and 0.86 nM and 0.87 nM and 0.96 nM and 1.14 nM and 1.22 nM |
| Cc1cc2ccc1[C@@H](C)COC(=O)Nc1ccc(S(=O)(=O)C3CC3)c(c1)CN(C)C(=O)[C@@H]2Nc1cc2c(=O)[nH]cnc2cc1F [Example 78, (2R,15R)-7-Cyclopropanesulfonyl-2-(7-fluoro-4-oxo-3,4-dihydro-quinazolin-6-ylamino)-4,15,17-trimethyl-13-oxa-4,1-diaza-tricyclo[14.2.2.1^6,10]henicosa-1(19),6,8,10(21),16(20),17-hexaene-3,12-dione] | 1.35 nM and 1.38 nM |
| COc1cc2cc(OC)c1CCOC(=O)Nc1cccc(c1)[C@@H](CC(=O)O)NC(=O)[C@@H]2Nc1ccc2nc[nH]c(=O)c2c1 [Example 13, [(2R,5R)-17,20-Dimethoxy-3,12-dioxo-2-(4-oxo-3,4-dihydro-quinazolin-6-ylamino)-13-oxa-4,11-diaza-tricyclo[14.2.2.1^6,10]henicosa-1(19),6,8,10(21),16(20),17-hexaen-5-yl]-acetic acid] | 24 nM and 40.4 nM |
| Cc1cc2ccc1[C@@H](C)COC(=O)Nc1ccc(S(=O)(=O)C3CC3)c(c1)CN(C)C(=O)[C@@H]2Nc1ccc2cc[nH]c(=O)c2c1 [Example 79, (2R,15R)-7-Cyclopropanesulfonyl-4,15,17-trimethyl-2-(1-oxo-1,2-dihydro-isoquinolin-7-ylamino)-13-oxa-4,1-diaza-tricyclo[14.2.2.1^6,10]henicosa-1(19),6,8,10(21),16(20),17-hexaene-3,12-dione] | 0.88 nM |
| COc1cc2ccc1[C@@H](C)COC(=O)Nc1ccc(S(=O)(=O)C3CC3)c(c1)CN(C)C(=O)[C@@H]2Nc1ccc2cc[nH]c(=O)c2c1 [Example 82, (2R,15R)-7-Cyclopropanesulfonyl-17-methoxy-4,15-dimethyl-2-(1-oxo-1,2-dihydro-isoquinolin-7-ylamino)-13-oxa-4,11-diaza-tricyclo[14.2.2.1^6,10]henicosa-1(19),6,8,10(21),16(20),17-hexaene-3,12-dione] | 0.61 nM |
